# Reference: PubChem BioAssay AID248 (DTP/NCI, 2004)
# Several values for one entry are separate records, joined by “and”; a condition that tells them apart may be missing. Equal entries are not always repeated. Inconclusive results and toxic doses are left out.
# Test system: L1210 leukemia ip in BDF1 mice, survival T/C
# Experiment: NCI In Vivo Anticancer Drug Screen. Data for tumor model L1210 Leukemia (intraperitoneal) in B6D2F1 (BDF1) mice
# Conditions: endpoint: mean survival time, higher = longer survival
# In short: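 Survival endpoint. Drug-treated group vs vehicle group, expressed as T divided by C. Tumor passaged by transplantation.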
# [1] = dose: 100.0 mg/kg/injection, schedule: Q04DX003 (ip), vehicle: saline
# [2] = dose: 200.0 mg/kg/injection, schedule: Q04DX003 (ip), vehicle: saline
# [3] = dose: 400.0 mg/kg/injection, schedule: Q04DX003 (ip), vehicle: saline
# [4] = dose: 100.0 mg/kg/injection, schedule: Q01DX009 (ip), vehicle: saline with Tween-80
# [5] = dose: 200.0 mg/kg/injection, schedule: Q01DX009 (ip), vehicle: saline with Tween-80
# [6] = dose: 400.0 mg/kg/injection, schedule: Q01DX009 (ip), vehicle: saline with Tween-80
# [7] = dose: 50.0 mg/kg/injection, schedule: Q01DX009 (ip), vehicle: Klucel (hydroxypropylcellulose) (HPC)
# [8] = dose: 100.0 mg/kg/injection, schedule: Q01DX009 (ip), vehicle: Klucel (hydroxypropylcellulose) (HPC)
# [9] = dose: 200.0 mg/kg/injection, schedule: Q01DX009 (ip), vehicle: Klucel (hydroxypropylcellulose) (HPC)
# [10] = dose: 100.0 mg/kg/injection, schedule: Q04DX003 (ip), vehicle: Klucel (hydroxypropylcellulose) (HPC)
# [11] = dose: 200.0 mg/kg/injection, schedule: Q04DX003 (ip), vehicle: Klucel (hydroxypropylcellulose) (HPC)
# [12] = dose: 400.0 mg/kg/injection, schedule: Q04DX003 (ip), vehicle: Klucel (hydroxypropylcellulose) (HPC)
compound,measurement,setting,value
CN(/N=N/N(C)c1ccccc1)c1ccccc1,T/C,"dose: 6.3 mg/kg/injection, schedule: Q01DX Z (sc), vehicle: carboxymethylcellulose (CMC)",102 % of control
same,T/C,"dose: 12.5 mg/kg/injection, schedule: Q01DX Z (sc), vehicle: carboxymethylcellulose (CMC)",113 % of control
same,T/C,"dose: 25.0 mg/kg/injection, schedule: Q01DX Z (sc), vehicle: carboxymethylcellulose (CMC)",105 % of control and 106 % of control
same,T/C,"dose: 50.0 mg/kg/injection, schedule: Q01DX Z (sc), vehicle: carboxymethylcellulose (CMC)",102 % of control
same,T/C,"dose: 100.0 mg/kg/injection, schedule: Q01DX001 (ip), vehicle: carboxymethylcellulose (CMC)",102 % of control
same,T/C,"dose: 100.0 mg/kg/injection, schedule: Q01DX Z (sc), vehicle: carboxymethylcellulose (CMC)",104 % of control
same,T/C,"dose: 150.0 mg/kg/injection, schedule: Q01DX Z (sc), vehicle: carboxymethylcellulose (CMC)",91 % of control
same,T/C,"dose: 200.0 mg/kg/injection, schedule: Q01DX001 (ip), vehicle: carboxymethylcellulose (CMC)",102 % of control
same,T/C,"dose: 300.0 mg/kg/injection, schedule: Q01DX Z (sc), vehicle: carboxymethylcellulose (CMC)",100 % of control
same,T/C,"dose: 400.0 mg/kg/injection, schedule: Q01DX001 (ip), vehicle: carboxymethylcellulose (CMC)",98 % of control
CC(C)CC[NH-].CC(C)CC[NH-].[Cl][Pt+2][Cl],T/C,"dose: 50.0 mg/kg/injection, schedule: Q04DX003 (ip), vehicle: saline",100 % of control and 105 % of control
same,T/C,[1],92 % of control and 105 % of control
same,T/C,[2],103 % of control and 117 % of control
same,T/C,[3],97 % of control and 88 % of control
CCCNC(=O)Oc1c(C(C)C)ccc(C)c1Cl,T/C,[4],108 % of control
same,T/C,[5],88 % of control
same,T/C,[6],95 % of control
C=Cc1cc(C)cc(OC)c1O,T/C,[7],87 % of control
same,T/C,[8],89 % of control
same,T/C,[9],87 % of control
CC(C)CCC(O)c1cnc(OCc2ccccc2)nc1OCc1ccccc1 (configuration not stated),T/C,[10],92 % of control
same,T/C,[11],95 % of control
same,T/C,[12],100 % of control
Cc1ccccc1C(C)(O)Cc1nccn1Cc1ccccc1 (configuration not stated),T/C,[1],90 % of control
same,T/C,[2],95 % of control
same,T/C,[3],103 % of control
CC(C)=CCCBr,T/C,"dose: 50.0 mg/kg/injection, schedule: Q01DX009 (sc), vehicle: olive oil, sesame oil, peanut oil",108 % of control
same,T/C,"dose: 100.0 mg/kg/injection, schedule: Q01DX009 (sc), vehicle: olive oil, sesame oil, peanut oil",102 % of control
same,T/C,"dose: 200.0 mg/kg/injection, schedule: Q01DX009 (sc), vehicle: olive oil, sesame oil, peanut oil",108 % of control
CN(Cc1cnc2nc(N)nc(N)c2n1)c1ccc(C(=O)NC(CCC(=O)O)C(=O)O)cc1C(F)(F)F (configuration not stated),T/C,"dose: 5.0 mg/kg/injection, schedule: Q01DX009 (ip), vehicle: sodium bicarbonate",158 % of control
same,T/C,"dose: 10.0 mg/kg/injection, schedule: Q01DX009 (ip), vehicle: sodium bicarbonate",168 % of control
CC(=O)[O][Sn]([CH2]c1ccccc1)([CH2]c1ccccc1)[CH2]c1ccccc1,T/C,"dose: 0.5 mg/kg/injection, schedule: Q04DX003 (ip), vehicle: saline with Tween-80",97 % of control
same,T/C,"dose: 1.0 mg/kg/injection, schedule: Q04DX003 (ip), vehicle: saline with Tween-80",96 % of control
same,T/C,"dose: 3.0 mg/kg/injection, schedule: Q04DX003 (ip), vehicle: saline with Tween-80",99 % of control
same,T/C,"dose: 12.0 mg/kg/injection, schedule: Q01DX009 (ip), vehicle: saline with Tween-80",97 % of control
same,T/C,"dose: 25.0 mg/kg/injection, schedule: Q01DX009 (ip), vehicle: saline with Tween-80",100 % of control
NC1(C(=O)O)CC2CC1C2 (configuration not stated),T/C,"dose: 100.0 mg/kg/injection, schedule: Q04DX002 (ip), vehicle: other",95 % of control
same,T/C,"dose: 200.0 mg/kg/injection, schedule: Q04DX002 (ip), vehicle: other",106 % of control
same,T/C,"dose: 400.0 mg/kg/injection, schedule: Q04DX002 (ip), vehicle: other",92 % of control
c1ccc(CC2NCCc3c2[nH]c2ccccc32)cc1 (configuration not stated),T/C,"dose: 25.0 mg/kg/injection, schedule: Q01DX009 (ip), vehicle: Klucel (hydroxypropylcellulose) (HPC)",104 % of control
same,T/C,"dose: 25.0 mg/kg/injection, schedule: Q04DX003 (ip), vehicle: Klucel (hydroxypropylcellulose) (HPC)",92 % of control
same,T/C,[7],103 % of control
same,T/C,[8],93 % of control
same,T/C,[10],89 % of control
same,T/C,[9],108 % of control
same,T/C,[11],97 % of control
same,T/C,[12],97 % of control
CCN(CCO)CC1OC(OC)C2OC(C)(C)OC12 (configuration not stated),T/C,"dose: 100.0 mg/kg/injection, schedule: Q01DX009 (ip), vehicle: saline",97 % of control
same,T/C,[1],98 % of control
same,T/C,"dose: 200.0 mg/kg/injection, schedule: Q01DX009 (ip), vehicle: saline",100 % of control
same,T/C,[2],95 % of control
same,T/C,"dose: 400.0 mg/kg/injection, schedule: Q01DX009 (ip), vehicle: saline",94 % of control
same,T/C,[3],96 % of control
CN(NC(=O)CC(=O)NN(C)C(=S)c1ccc(Cl)cc1)C(=S)c1ccc(Cl)cc1,T/C,"dose: 25.0 mg/kg/injection, schedule: Q01DX009 (ip), vehicle: gum acacia",96 % of control
same,T/C,"dose: 25.0 mg/kg/injection, schedule: Q04DX003 (ip), vehicle: gum acacia",92 % of control
same,T/C,"dose: 50.0 mg/kg/injection, schedule: Q01DX009 (ip), vehicle: gum acacia",91 % of control
same,T/C,"dose: 50.0 mg/kg/injection, schedule: Q04DX003 (ip), vehicle: gum acacia",93 % of control
same,T/C,"dose: 100.0 mg/kg/injection, schedule: Q01DX009 (ip), vehicle: gum acacia",89 % of control
same,T/C,"dose: 100.0 mg/kg/injection, schedule: Q04DX003 (ip), vehicle: gum acacia",90 % of control
same,T/C,"dose: 200.0 mg/kg/injection, schedule: Q04DX003 (ip), vehicle: gum acacia",86 % of control
same,T/C,"dose: 400.0 mg/kg/injection, schedule: Q04DX003 (ip), vehicle: gum acacia",92 % of control
CCN1/C(=C/c2ccc3ccccc3[n+]2CC)C=Cc2ccccc21,T/C,"dose: 2.0 mg/kg/injection, schedule: Q01DX001 (ip), vehicle: other",103 % of control
same,T/C,"dose: 8.0 mg/kg/injection, schedule: Q01DX001 (ip), vehicle: other",110 % of control
same,T/C,"dose: 9.5 mg/kg/injection, schedule: Q01DX001 (ip), vehicle: other",101 % of control
CCCCCCCCC(=O)NCc1ccco1,T/C,[8],92 % of control
same,T/C,[9],91 % of control
same,T/C,"dose: 400.0 mg/kg/injection, schedule: Q01DX009 (ip), vehicle: Klucel (hydroxypropylcellulose) (HPC)",94 % of control
O=S1(=O)CC(O)C1,T/C,"dose: 50.0 mg/kg/injection, schedule: Q01DX001 (ip), vehicle: saline",91 % of control
same,T/C,"dose: 100.0 mg/kg/injection, schedule: Q01DX001 (ip), vehicle: saline",100 % of control
same,T/C,"dose: 200.0 mg/kg/injection, schedule: Q01DX001 (ip), vehicle: saline",94 % of control
same,T/C,"dose: 400.0 mg/kg/injection, schedule: Q01DX001 (ip), vehicle: saline",105 % of control
Cc1ccc[n+](CC(=O)CCc2ccc(C(=O)C[n+]3cccc(C)c3)cc2)c1,T/C,"dose: 0.07 mg/kg/injection, schedule: Q04DX003 (ip), vehicle: saline",94 % of control
same,T/C,"dose: 0.14 mg/kg/injection, schedule: Q04DX003 (ip), vehicle: saline",101 % of control
Cc1ccc(NC(=O)OCCSCCOC(=O)Nc2ccc(C)cc2)cc1,T/C,"dose: 100.0 mg/kg/injection, schedule: Q01DX009 (ip), vehicle: other",89 % of control
same,T/C,"dose: 200.0 mg/kg/injection, schedule: Q01DX009 (ip), vehicle: other",89 % of control
same,T/C,"dose: 400.0 mg/kg/injection, schedule: Q01DX009 (ip), vehicle: other",97 % of control
Cn1nc(NC(=O)C(F)(F)F)c2ncc(-c3ccc(Cl)cc3)nc21,T/C,[4],102 % of control
same,T/C,"dose: 100.0 mg/kg/injection, schedule: Q04DX003 (ip), vehicle: saline with Tween-80",100 % of control
same,T/C,[5],97 % of control
same,T/C,"dose: 200.0 mg/kg/injection, schedule: Q04DX003 (ip), vehicle: saline with Tween-80",87 % of control
same,T/C,[6],97 % of control
same,T/C,"dose: 400.0 mg/kg/injection, schedule: Q04DX003 (ip), vehicle: saline with Tween-80",96 % of control
